According to patent US20060233877A1, “Betaine compositions” (priority 2002, published 2006):
Where “and” joins values, the source holds several entries; their conditions need not be identical. Equal values may be shown once.

Legend:
[1] = system: platelet aggregation induced by ADP; assay: Aggregation tests (whole blood aggregometry, ADP 5 μM) after subcutaneous dosing; format: in vivo, Rats Wistar
[2] = system: laser-induced thrombosis in the mesenteric microcirculation of the rat; assay: Laser-induced thrombosis; format: in vivo, Rats Wistar; conditions: for Duration of embolisation / Number of emboli: ASA 50 mg/kg s.c.
Text: Principle of Laser-Induced Thrombosis ([…]. et al., 1989; […]. et al., 1983) In this model, lesion of the vascular wall is induced by a laser beam. This beam causes a limited lesion of the vascular endothelium (only 1 to 2 cells are destroyed). This laying bare of the sub-endothelium, which is a thrombogenetic surface, results in the adherence of platelets via glycoproteins. This adherence of platelets is followed by their activation, they form pseudopods and secrete the content of their granules. This activation results in the appearance of glycoprotein binding sites which are necessary for the aggregation of the platelets between them and for platelet adhesion to the thrombogenic surfaces. This lesion is induced in the mesenteric microcirculation of the rat. It is immediately followed by the formation of a thrombus (in a few seconds). This thrombus, which rapidly enlarges under the influence of the blood flow, embolises before being formed again. The substances were subcutaneously injected 1 hour before the tests.

[3] = system: platelet adhesion and thrombus formation on collagen coated surface; assay: Parallel plate chamber: platelet adhesion and thrombus formation on collagen coated surface at 60 dynes/cm^2; format: cell-based, human
Text: The synergistic effect of asa/betaine on platelet adhesion is studied by perfusing blood on thrombogenic surface such as collagen under shear stress conditions.
Effect of betaine, aspirin or betaine/aspirin combination on platelet adhesion and thrombus formation on collagen coated surface.
We studied the effect of asafbetaine on platelet adhesion and thrombus formation under laminar flow at high shear stress (60 dynes/cm^2) on a collagen coated surface. This high shear stress mimics stenosed arteries. The blood of four fastened healthy subjects was sampled on day 1 as to determine basal values and betaine effect when added in vitro (table1), then the subjects were orally administrated a daily oral bolus dose of 350 mg of ASA during 3 days and their blood sampled on day 3 as to determine ASA effect and ASA+betaine effect when betaine is added in vitro to aspirinized blood at different concentrations (table2).
Citrated human aspirinized blood was pre-labelled with mepacrine and exposed to vehicle alone or betaine (20, 40, and 80 μg/ml) for 20 minutes before perfusion.
The effect of asa/betaine has been evaluated by performing experiments 60 dynes/cm^2 witch mimics arterial thrombosis. Before perfusion citrated whole blood was incubated with saline alone or betaine at concentration of 20, 40, and 80 μg/ml for 20 minutes and then perfused on collagen at 60 dynes/cm^2 At the end of 2 minutes of perfusion, cells were fixed and the area covered by thrombi was calculated by analysis of fluorescent thrombus images acquired by confocal microscopy.
Collagen coated slides. Glass slides were with collagen (200 μg/ml; equine collagen), placed for 1 hour in a water bath at 37° C., and the collagen gel allowed to evaporate for 30 minutes under a ventilated hood. Perfusion with citrated whole blood was started and continued for 2 minutes, then blood was withdrawn from the circuit, and platelet thrombi adherent to the collagen coated surface were fixed and stained with May Grunwald-Giemsa.
Images of platelet thrombi were digitised using a light microscope connected to a computer-based image analysis system. The surface occupied by thrombi and mean thrombus area were evaluated by automatic edge detection using built-in specific functions of a software image.
Platelet adhesion and thrombus formation. Platelet adhesion assay was performed according to the described previously (Alevriadou et al., 1993; Boccardo et al., 1997) with minor modifications. Blood collected on citrate (3,8%) was perfused through a flow chamber using a syringe pump. A flow chamber thermostatized to 37° C. was used in which one surface of the perfusion channel is a glass slide coated with equine collagen.
Flow chamber. The chamber dimensions (30 mm long, 1 mm large, and 150 μm in the thickness) allow to obtain a wide range of shear rate low flow rates of blood.
Citrated whole blood was incubated with the fluorescent dye mepacrine 10 μM (quinacrine dihydrochloride BP; Sigma Chemical, St Louis. MO). Mepacrine concentrated in the dense granules of platelets and in the granules of leukocytes and, at this concentration has no effect on normal platelet function (3). Any fluorescence within the erythrocytes is quenched by haemoglobin. Blood was pre-incubated 5 minutes at 37° C. before perfusion. The system was filled with PBS pH 7.3, then perfusion with blood was started and maintained at the constant flow rate of 1500 sec^−1 (corresponding to a shear stress of 60 dynes/cm^2). After 2 min, perfusion was stopped and the slide with the collagen monolayer was dehydrated and fixed in acetone for 20 minutes.
Images of platelet thrombi on collagen surface were acquired by a confocal inverted laser microscope. The surface occupied by thrombi was evaluated by automatic edge detection using built-in specific functions of a software image.

[4] = cited from earlier work
[5] = Solubility in water / concentrated betaine solution; format: physicochemical
[6] = experiment A, ASA 100 mg/kg s.c.
[7] = experiment A, ASA 100 mg/kg s.c., mean
[8] = experiment B, ASA 50 mg/kg s.c.
[9] = experiment B, ASA 50 mg/kg s.c., mean

CC(=O)Oc1ccccc1C(=O)O [ASA, acetylsalicylic acid]
Amplitude [1, 6]: 2 ohm and 3 ohm and 4 ohm | velocity [1, 6]: 4 ohm/min and 3 ohm/min and 5 ohm/min | Amplitude [1, 7]: 2.6 ± 0.89 ohm | velocity [1, 7]: 3.8 ± 0.84 ohm/min | Amplitude [1, 8]: 8 Ohm and 9 Ohm and 10 Ohm and 7 Ohm | velocity [1, 8]: 7 Ohm/min and 8 Ohm/min and 9 Ohm/min and 6 Ohm/min | Amplitude [1, 9]: 8.5 Ohm | velocity [1, 9]: 7.33 Ohm/min | Number of laser shoots ([2]; experiment A, ASA 100 mg/kg s.c. 1 hour before, rats 1-5 and mean): 4 and 3 | Number of laser shoots ([2]; experiment A, ASA 100 mg/kg s.c. 1 hour before, rats 1-5 and mean, mean): 3.2 ± 0.45 | Duration of embolisation ([2]; experiment B): 4 min and 3 min and 2 min | Number of emboli ([2]; experiment B): 3 and 4 | Number of laser shoots ([2]; experiment B, ASA 50 mg/kg s.c. 1 hour before, n=6 rats and mean): 2 and 3 | Number of laser shoots ([2]; experiment B, ASA 50 mg/kg s.c. 1 hour before, n=6 rats and mean, mean): 2.33 | Duration of embolisation ([2]; experiment B, mean): 2.5 min | Number of emboli ([2]; experiment B, mean): 3.33 | Number laser shoots ([2]; experiment C, ASA 100 mg/kg s.c. 1 hour before, 6 rats and mean): 4 and 3 and 2 | area covered by thrombi ([3]; aspirinized blood (350 mg ASA oral daily, 3 days) + saline): 72856 pixels/field and 121321 pixels/field and 132458 pixels/field and 122652 pixels/field | solubility in water [4]: about 0.3%

C[N+](C)(C)CC(=O)O [betaine, Betaine monohydrate]
area covered by thrombi ([3]; betaine 20 μg/ml in vitro, 20 minutes, subjects 1-4 and mean, monohydrate): 88746 pixels/field and 135241 pixels/field and 122369 pixels/field and 154425 pixels/field | area covered by thrombi ([3]; betaine 40 μg/ml in vitro, 20 minutes, monohydrate): 66852 pixels/field and 92433 pixels/field and 89628 pixels/field and 95645 pixels/field | area covered by thrombi ([3]; betaine 80 μg/ml in vitro, 20 minutes, monohydrate): 57544 pixels/field and 81585 pixels/field and 76654 pixels/field and 82579 pixels/field | reduction in platelet deposition in respect to vehicle ([3]; betaine 80 μg/ml, Table 1): −49% | effect on platelet deposition and thrombus formation ([3]; high shear stress, versus vehicle-treated blood): significantly inhibit platelet deposition and consequent thrombus formation

O=C(O)c1ccccc1O [salicylic acid]
amount that can be dissolved ([5]; cold concentrated betaine solution): Up to 5% | amount dissolved relative to pure water ([5]; cold concentrated betaine solution vs pure water): 15 times
